System: HBsAg secretion, HepG2-Clone42 cells (Tet-inducible HBV-expressing, HBV ayw strain)
Assay: HBsAg assay (HBsAg ELISA, secreted HBV sAg from HepG2-Clone42 cells)
Type: cell-based
Conditions: Hepatitis B virus, read-out: HBsAg (nM), EC50 = concentration at which HBsAg secretion was reduced 50% compared to DMSO control
Method in brief: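 HepG2-Clone42 cells (Tet-inducible, integrated 1.3-mer HBV ayw) treated 24 h post-seeding with five-fold serial compound dilutions, 0.5% DMSO final. Secreted HBsAg measured by ELISA (A450); EC50 for 50% reduction vs DMSO control after background subtraction, four-parameter logistic fit.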

Q: `COCCOc1cccc2c3n(nc12)C1CCC(C)(C)C1n1cc(C(=O)O)c(=O)cc1-3` (single isomer, unassigned) [Example 6.2-I, 12-(2-methoxyethoxy)-3,3-dimethyl-7-oxo-2,3,3a,14a-tetrahydro-1H,7H-cyclopenta[5,6]pyrido[2′,1′:3,4]pyrazino[1,2-b]indazole-6-carboxylic Acid] was tested. Which EC50 did it give?
A: The EC50 was 1 to 100 nM.

Q: Which EC50 does the source give for `CC(C)(C)C1Cn2nc3c(OCCOCC(F)(F)F)cccc3c2-c2cc(=O)c(C(=O)O)cn21` (centres unmarked) [Example 2.3, 6-(tert-butyl)-2-oxo-10-(2-(2,2,2-trifluoroethoxy)ethoxy)-6,7-dihydro-2H-pyrido[2′,1′:3,4]pyrazino[1,2-b]indazole-3-carboxylic Acid] here?
A: The EC50 was under 1 nM.

Q: `COCC1(COc2cccc3c4n(nc23)CC(C(C)(C)C)n2cc(C(=O)O)c(=O)cc2-4)CCC1` (centres unmarked) [Example 2.4, 6-(tert-butyl)-10-((1-(methoxymethyl)cyclobutyl)methoxy)-2-oxo-6,7-dihydro-2H-pyrido[2′,1′:3,4]pyrazino[1,2-b]indazole-3-carboxylic Acid] was tested. Which EC50 did it give?
A: Its EC50 is over 100 nM.

Q: With `CC(C)(C)C1Cn2nc3c(OC(F)F)cccc3c2-c2cc(=O)c(C(=O)O)cn21` (centres unmarked) [Example 2.5, 6-(tert-butyl)-10-(difluoromethoxy)-2-oxo-6,7-dihydro-2H-pyrido[2′,1′:3,4]pyrazino[1,2-b]indazole-3-carboxylic Acid] as the compound, how does the EC50 read?
A: Its EC50 is 1 to 100 nM.

Q: For `CC(C)(C)C1Cn2nc3c(OCC4CCCO4)cccc3c2-c2cc(=O)c(C(=O)O)cn21` (centres unmarked) [Example 2.25, 6-(tert-butyl)-2-oxo-10-((tetrahydrofuran-2-yl)methoxy)-6,7-dihydro-2H-pyrido[2′,1′:3,4]pyrazino[1,2-b]indazole-3-carboxylic Acid], which EC50 is on record?
A: The EC50 was 1 to 100 nM.

Q: Which EC50 does the source give for `COCCCOc1cccc2c3n(nc12)C[C@@H](C(C)(C)C)n1cc(C(=O)O)c(=O)cc1-3` [Example 9.1, (R)-6-(tert-butyl)-10-(3-methoxypropoxy)-2-oxo-6,7-dihydro-2H-pyrido[2′,1′:3,4]pyrazino[1,2-b]indazole-3-carboxylic Acid] here?
A: The EC50 was under 1 nM.

Same assay, conditions: read-out: HBsAg, EC50 = concentration at which HBsAg secretion was reduced 50% compared to DMSO control

Q: `COCC(C)Oc1cccc2c3n(nc12)CC(C(C)(C)C)n1cc(C(=O)O)c(=O)cc1-3` (single isomer, unassigned) [Example 2.35-II, 6-(tert-butyl)-10-((1-methoxypropan-2-yl)oxy)-2-oxo-6,7-dihydro-2H-pyrido[2′,1′:3,4]pyrazino[1,2-b]indazole-3-carboxylic Acid] was tested. Which EC50 did it give?
A: The EC50 was 1 to 100 nM.

Q: With `CC(C)Oc1cccc2c3n(nc12)CC(C(C)(C)C)n1cc(C(=O)O)c(=O)cc1-3` (single isomer, unassigned) [Example 2.47-I, 6-(tert-butyl)-10-isopropoxy-2-oxo-6,7-dihydro-2H-pyrido[2′,1′:3,4]pyrazino[1,2-b]indazole-3-carboxylic Acid] as the compound, how does the EC50 read?
A: The EC50 was over 100 nM.

Q: `CC(C)Oc1cccc2c3n(nc12)CC(C(C)(C)C)n1cc(C(=O)O)c(=O)cc1-3` (single isomer, unassigned) [Example 2.47-II, 6-(tert-butyl)-10-isopropoxy-2-oxo-6,7-dihydro-2H-pyrido[2′,1′:3,4]pyrazino[1,2-b]indazole-3-carboxylic Acid] was tested. Which EC50 did it give?
A: The EC50 was under 1 nM.

Q: For `COc1cccc2c3n(nc12)CC(C(C)(C)CO)n1cc(C(=O)O)c(=O)cc1-3` (single isomer, unassigned) [Example 3.1-I, 6-(1-hydroxy-2-methylpropan-2-yl)-10-methoxy-2-oxo-6,7-dihydro-2H-pyrido[2′,1′:3,4]pyrazino[1,2-b]indazole-3-carboxylic Acid], which EC50 is on record?
A: The EC50 was over 100 nM.

Q: With `COc1cccc2c3n(nc12)CC(C(C)(C)CO)n1cc(C(=O)O)c(=O)cc1-3` (single isomer, unassigned) [Example 3.1-II, 6-(1-hydroxy-2-methylpropan-2-yl)-10-methoxy-2-oxo-6,7-dihydro-2H-pyrido[2′,1′:3,4]pyrazino[1,2-b]indazole-3-carboxylic Acid] as the compound, how does the EC50 read?
A: Its EC50 is 1 to 100 nM.

Q: `COCC(C)(C)C1Cn2nc3c(OC)cccc3c2-c2cc(=O)c(C(=O)O)cn21` (single isomer, unassigned) [Example 4.1-I, 10-methoxy-6-(1-methoxy-2-methylpropan-2-yl)-2-oxo-6,7-dihydro-2H-pyrido[2′,1′:3,4]pyrazino[1,2-b]indazole-3-carboxylic Acid] was tested. Which EC50 did it give?
A: The EC50 was under 1 nM.

Q: With `COCC(C)(C)C1Cn2nc3c(OC)cccc3c2-c2cc(=O)c(C(=O)O)cn21` (single isomer, unassigned) [Example 4.1-II, 10-methoxy-6-(1-methoxy-2-methylpropan-2-yl)-2-oxo-6,7-dihydro-2H-pyrido[2′,1′:3,4]pyrazino[1,2-b]indazole-3-carboxylic Acid] as the compound, how does the EC50 read?
A: The EC50 was over 100 nM.

Q: For `COc1cccc2c3n(nc12)C1CCC(C)(C)C1n1cc(C(=O)O)c(=O)cc1-3` (single isomer, unassigned) [Example 5.1-I, 12-methoxy-3,3-dimethyl-7-oxo-2,3,3a,14a-tetrahydro-1H,7H-cyclopenta[5,6]pyrido[2′,1′:3,4]pyrazino[1,2-b]indazole-6-carboxylic Acid], which EC50 is on record?
A: The EC50 was under 1 nM.

Q: `COc1cccc2c3n(nc12)C1CCC(C)(C)C1n1cc(C(=O)O)c(=O)cc1-3` (single isomer, unassigned) [Example 5.1-II, 12-methoxy-3,3-dimethyl-7-oxo-2,3,3a,14a-tetrahydro-1H,7H-cyclopenta[5,6]pyrido[2′,1′:3,4]pyrazino[1,2-b]indazole-6-carboxylic Acid] was tested. Which EC50 did it give?
A: Its EC50 is over 100 nM.

Q: With `CC1(C)CCC2C1n1cc(C(=O)O)c(=O)cc1-c1c3cccc(F)c3nn12` (single isomer, unassigned) [Example 5.2-I, 12-fluoro-3,3-dimethyl-7-oxo-2,3,3a,14a-tetrahydro-1H,7H-cyclopenta[5,6]pyrido[2′,1′:3,4]pyrazino[1,2-b]indazole-6-carboxylic Acid] as the compound, how does the EC50 read?
A: The EC50 was 1 to 100 nM.

Q: With `CC1(C)CCC2C1n1cc(C(=O)O)c(=O)cc1-c1c3cccc(F)c3nn12` (single isomer, unassigned) [Example 5.2-II, 12-fluoro-3,3-dimethyl-7-oxo-2,3,3a,14a-tetrahydro-1H,7H-cyclopenta[5,6]pyrido[2′,1′:3,4]pyrazino[1,2-b]indazole-6-carboxylic Acid] as the compound, how does the EC50 read?
A: Its EC50 is over 100 nM.

Q: `COCCCOc1cccc2c3n(nc12)C1CCC(C)(C)C1n1cc(C(=O)O)c(=O)cc1-3` (single isomer, unassigned) [Example 6.1-I, 12-(3-methoxypropoxy)-3,3-dimethyl-7-oxo-2,3,3a,14a-tetrahydro-1H,7H-cyclopenta[5,6]pyrido[2′,1′:3,4]pyrazino[1,2-b]indazole-6-carboxylic Acid] was tested. Which EC50 did it give?
A: Its EC50 is over 100 nM.

Q: Which EC50 does the source give for `COCCCOc1cccc2c3n(nc12)C1CCC(C)(C)C1n1cc(C(=O)O)c(=O)cc1-3` (single isomer, unassigned) [Example 6.1-II, 12-(3-methoxypropoxy)-3,3-dimethyl-7-oxo-2,3,3a,14a-tetrahydro-1H,7H-cyclopenta[5,6]pyrido[2′,1′:3,4]pyrazino[1,2-b]indazole-6-carboxylic Acid] here?
A: Its EC50 is under 1 nM.

Q: `COCCOc1cccc2c3n(nc12)C1CCC(C)(C)C1n1cc(C(=O)O)c(=O)cc1-3` (single isomer, unassigned) [Example 6.2-II, 12-(2-methoxyethoxy)-3,3-dimethyl-7-oxo-2,3,3a,14a-tetrahydro-1H,7H-cyclopenta[5,6]pyrido[2′,1′:3,4]pyrazino[1,2-b]indazole-6-carboxylic Acid] was tested. Which EC50 did it give?
A: The EC50 was under 1 nM.

Q: With `COCCCOc1cccc2c3n(nc12)CC(C(C)(C)COC)n1cc(C(=O)O)c(=O)cc1-3` (single isomer, unassigned) [Example 7.1-I, 6-(1-methoxy-2-methylpropan-2-yl)-10-(3-methoxypropoxy)-2-oxo-6,7-dihydro-2H-pyrido[2′,1′:3,4]pyrazino[1,2-b]indazole-3-carboxylic Acid] as the compound, how does the EC50 read?
A: The EC50 was over 100 nM.

Q: How did the EC50 turn out when `COCCCOc1cccc2c3n(nc12)CC(C(C)(C)COC)n1cc(C(=O)O)c(=O)cc1-3` (single isomer, unassigned) [Example 7.1-II, 6-(1-methoxy-2-methylpropan-2-yl)-10-(3-methoxypropoxy)-2-oxo-6,7-dihydro-2H-pyrido[2′,1′:3,4]pyrazino[1,2-b]indazole-3-carboxylic Acid] was run?
A: Its EC50 is under 1 nM.

Q: Which EC50 does the source give for `COCCCOc1cccc2c3n(nc12)CC(C(C)(C)C)n1cc(C(=O)O)c(=O)c(F)c1-3` (single isomer, unassigned) [Example 8.1-I, 6-(tert-butyl)-1-fluoro-10-(3-methoxypropoxy)-2-oxo-6,7-dihydro-2H-pyrido[2′,1′:3,4]pyrazino[1,2-b]indazole-3-carboxylic Acid] here?
A: The EC50 was over 100 nM.

Q: `COCCCOc1cccc2c3n(nc12)CC(C(C)(C)C)n1cc(C(=O)O)c(=O)c(F)c1-3` (single isomer, unassigned) [Example 8.1-II, 6-(tert-butyl)-1-fluoro-10-(3-methoxypropoxy)-2-oxo-6,7-dihydro-2H-pyrido[2′,1′:3,4]pyrazino[1,2-b]indazole-3-carboxylic Acid] was tested. Which EC50 did it give?
A: The EC50 was 1 to 100 nM.

Q: How did the EC50 turn out when `COc1cccc2c3n(nc12)C1COC(C)(C)C1n1cc(C(=O)O)c(=O)cc1-3` (single isomer, unassigned) [Example 10.1-I, 12-methoxy-3,3-dimethyl-7-oxo-1,3,3a,14a-tetrahydro-7H-furo[3′,4′:5,6]pyrido[2′,1′:3,4]pyrazino[1,2-b]indazole-6-carboxylic Acid] was run?
A: The EC50 was over 100 nM.

Q: How did the EC50 turn out when `COc1cccc2c3n(nc12)C1COC(C)(C)C1n1cc(C(=O)O)c(=O)cc1-3` (single isomer, unassigned) [Example 10.1-II, 12-methoxy-3,3-dimethyl-7-oxo-1,3,3a,14a-tetrahydro-7H-furo[3′,4′:5,6]pyrido[2′,1′:3,4]pyrazino[1,2-b]indazole-6-carboxylic Acid] was run?
A: Its EC50 is 1 to 100 nM.
